From US9926297B2, “Bicyclic AZA compounds as muscarinic M1 receptor and/or M4 receptor agonists” (Heptares Therapeutics Limited, priority 2014, dated 2018)

What was measured:
[1] = biological target: human muscarinic M3 receptor (Homo sapiens, UniProt P20309); assay: Alphascreen Surefire phospho-ERK1/2 functional assay, M3; conditions: for Emax: CHO, read-out: % Emax cf. ACh, M3, CHO cells stably expressing human M3; for Emax / % Emax cf. ACh, M3: relative to ACh; for EC50: pEC50 M3, CHO cells stably expressing human M3
Chain of human muscarinic M3 receptor (P20309 whole entry): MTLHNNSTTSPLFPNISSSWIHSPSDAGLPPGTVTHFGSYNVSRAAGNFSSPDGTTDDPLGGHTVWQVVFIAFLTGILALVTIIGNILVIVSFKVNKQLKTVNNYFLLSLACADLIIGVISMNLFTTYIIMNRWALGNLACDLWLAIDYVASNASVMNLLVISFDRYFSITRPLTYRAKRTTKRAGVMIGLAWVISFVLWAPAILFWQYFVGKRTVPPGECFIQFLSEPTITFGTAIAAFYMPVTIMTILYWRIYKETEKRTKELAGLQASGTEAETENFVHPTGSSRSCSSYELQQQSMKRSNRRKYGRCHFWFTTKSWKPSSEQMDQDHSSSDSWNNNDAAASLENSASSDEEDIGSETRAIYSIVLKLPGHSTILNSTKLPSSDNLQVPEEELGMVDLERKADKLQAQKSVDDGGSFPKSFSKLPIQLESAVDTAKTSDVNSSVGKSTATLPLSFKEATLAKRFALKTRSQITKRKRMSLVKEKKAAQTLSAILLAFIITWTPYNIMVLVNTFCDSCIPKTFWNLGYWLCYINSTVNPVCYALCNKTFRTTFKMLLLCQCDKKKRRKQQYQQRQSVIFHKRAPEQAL

[2] = biological target: T1, human muscarinic M1 receptor (Homo sapiens, UniProt P11229); assay: Alphascreen Surefire phospho-ERK1/2 functional assay, M1; type: cell-based; conditions: for EC50 / % Emax cf. ACh, M1: CHO cells stably expressing human M1; for EC50: phospho-ERK1/2, * = variable results, read-out: pEC50 M1 (converted); for Emax: CHO, read-out: % Emax cf. ACh, M1, CHO cells stably expressing human M1; for Emax / % Emax cf. ACh, M1: relative to ACh
T1 sequence (P11229 1-460): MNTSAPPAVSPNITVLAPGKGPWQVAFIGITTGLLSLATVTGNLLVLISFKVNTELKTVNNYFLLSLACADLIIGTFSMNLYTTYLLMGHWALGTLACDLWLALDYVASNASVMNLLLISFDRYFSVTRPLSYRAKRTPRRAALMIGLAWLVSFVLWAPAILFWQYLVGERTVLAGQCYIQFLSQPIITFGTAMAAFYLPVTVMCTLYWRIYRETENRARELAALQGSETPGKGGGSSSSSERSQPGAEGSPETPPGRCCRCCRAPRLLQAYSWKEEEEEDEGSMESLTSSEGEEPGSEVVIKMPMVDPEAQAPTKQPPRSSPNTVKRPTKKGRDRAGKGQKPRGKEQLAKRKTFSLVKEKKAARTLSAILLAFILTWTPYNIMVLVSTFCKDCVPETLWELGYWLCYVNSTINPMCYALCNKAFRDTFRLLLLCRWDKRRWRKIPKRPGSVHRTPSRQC

[3] = biological target: T2, human muscarinic M4 receptor (Homo sapiens, UniProt P08173); assay: Alphascreen Surefire phospho-ERK1/2 functional assay, M4; type: cell-based; conditions: for EC50 / % Emax cf. ACh, M4: CHO cells stably expressing human M4; for EC50: phospho-ERK1/2, * = variable results, read-out: pEC50 M4 (converted); for Emax: CHO, read-out: % Emax cf. ACh, M4, CHO cells stably expressing human M4; for Emax / % Emax cf. ACh, M4: relative to ACh
T2 construct: expressed in transfected cells
T2 sequence (P08173 1-479): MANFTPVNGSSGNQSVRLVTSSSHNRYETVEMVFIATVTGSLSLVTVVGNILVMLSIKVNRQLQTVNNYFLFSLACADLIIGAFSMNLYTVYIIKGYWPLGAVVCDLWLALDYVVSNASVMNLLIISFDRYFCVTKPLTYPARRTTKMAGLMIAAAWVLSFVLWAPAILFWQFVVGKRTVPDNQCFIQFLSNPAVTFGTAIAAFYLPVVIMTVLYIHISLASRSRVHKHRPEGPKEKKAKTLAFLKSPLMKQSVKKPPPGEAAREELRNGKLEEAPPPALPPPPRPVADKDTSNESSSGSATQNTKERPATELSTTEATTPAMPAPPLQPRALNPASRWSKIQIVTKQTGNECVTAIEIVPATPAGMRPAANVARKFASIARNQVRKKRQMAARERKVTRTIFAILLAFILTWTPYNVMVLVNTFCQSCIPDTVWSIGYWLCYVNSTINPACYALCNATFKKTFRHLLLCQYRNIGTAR

[4] = biological target: T3, human muscarinic M2 receptor (Homo sapiens, UniProt P08172); assay: Alphascreen Surefire phospho-ERK1/2 functional assay, M2; conditions: for Emax: CHO, read-out: % Emax cf. ACh, M2, CHO cells stably expressing human M2; for Emax / % Emax cf. ACh, M2: relative to ACh
T3 sequence (P08172 1-466): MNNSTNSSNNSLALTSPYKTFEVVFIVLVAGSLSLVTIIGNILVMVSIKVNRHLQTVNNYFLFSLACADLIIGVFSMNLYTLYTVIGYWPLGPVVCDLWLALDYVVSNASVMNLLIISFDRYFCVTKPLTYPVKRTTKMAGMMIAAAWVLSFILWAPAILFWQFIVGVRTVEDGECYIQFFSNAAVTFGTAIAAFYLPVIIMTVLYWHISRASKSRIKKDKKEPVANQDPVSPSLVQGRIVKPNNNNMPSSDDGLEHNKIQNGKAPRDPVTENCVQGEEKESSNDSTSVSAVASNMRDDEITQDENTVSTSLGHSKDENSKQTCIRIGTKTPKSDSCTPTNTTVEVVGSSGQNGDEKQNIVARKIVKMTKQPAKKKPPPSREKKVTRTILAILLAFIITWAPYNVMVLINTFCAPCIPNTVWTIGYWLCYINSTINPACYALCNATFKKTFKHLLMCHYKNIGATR

[5] = phospho-ERK1/2, * = variable results
[6] = CHO cells stably expressing human M2
[7] = CHO cells stably expressing human M3

Row | SMILES | Emax [1] | EC50 [1, 5] | EC50 [2] | Emax [2] | EC50 [3] | Emax [3] | EC50 [4] | Emax [4] | % Emax cf. ACh, M1 [2] | % Emax cf. ACh, M4 [3] | % Emax cf. ACh, M2 [4, 6] | pEC50 M3 ([1]; CHO cells stably expressing human M3, phospho-ERK1/2, * = variable results) | % Emax cf. ACh, M3 [1, 7] | pEC50 M2 ([4]; CHO cells stably expressing human M2, phospho-ERK1/2, * = variable results)
1 | CCOC(=O)N1CCC2(CC(N3CCC([C@@H]4CCCN4C(=O)N4CCCC4)CC3)C2)C1 (single isomer, unassigned) [2-32 Isomer 2] | 11% | > 20000 nM | 2510 nM | 69% | 12.6 nM | 110% | > 20000 nM | 52% | – | – | – | – | – | –
2 | CCOC(=O)N1CCC2(CC(N3CCC(c4ncc[nH]4)CC3)C2)C1 (single isomer, unassigned) [1-1 Isomer 2, ethyl 2-[4-(1H-imidazol-2-yl)piperidin-1-yl]-6-azaspiro[3.4]octane-6-carboxylate] | 26% | > 20000 nM | 63.1 nM | 121% | 7.94 nM | 112% | > 20000 nM | 20% | – | – | – | – | – | –
3 | CCOC(=O)N1CCC2(CC(N3CCC(n4cc(C)cn4)CC3)C2)C1 (single isomer, unassigned) [1-34 Isomer 1, ethyl 2-[4-(4-methyl-1H-pyrazol-1-yl)piperidin-1-yl]-6-azaspiro[3.4]octane-6-carboxylate] | 0% | > 20000 nM | 501 nM | – | 158 nM | – | > 20000 nM | – | 49% | 48% | 10% | – | – | –
4 | CCOC(=O)N1CCC2(CC(N3CCC(c4cnc(OC)cc4C)CC3)C2)C1 (single isomer, unassigned) [3-6 Isomer 2, ethyl 2-[4-(6-methoxy-4-methylpyridin-3-yl)piperidin-1-yl]-6-azaspiro[3.4]octane-6-carboxylate] | 4% | > 20000 nM | > 20000 nM | 74% | 39.8 nM | 58% | > 20000 nM | 0% | – | – | – | – | – | –
5 | CCOC(=O)N1CCC2(CC(N3CCC([C@@H]4CCCN4C(=O)CCc4ccccn4)CC3)C2)C1 (single isomer, unassigned) [2-62 Isomer 2] | 8% | > 20000 nM | > 20000 nM | 20% | 15.8 nM | 65% | > 20000 nM | 6% | – | – | – | – | – | –
6 | CCOC(=O)N1CCC2(CC(N3CCC([C@@H]4CCCN4C(=O)OC)CC3)C2)C1 (single isomer, unassigned) [2-12 Isomer 2] | 6% | > 20000 nM | > 20000 nM | 9% | 10 nM | 57% | > 20000 nM | 9% | – | – | – | – | – | –
7 | CCOC(=O)N1CCC2(CC(N3CCC([C@@H]4CCCN4CCC(F)(F)F)CC3)C2)C1 (single isomer, unassigned) [2-70 Isomer 2] | 3% | > 20000 nM | 1580 nM | – | 31.6 nM | – | > 20000 nM | 1% | 93% | 111% | – | – | – | –
8 | CCOC(=O)N1CCC2(CC(N3CCC(C4c5ccccc5CN4C(=O)NC)CC3)C2)C1 (single isomer, unassigned) [2-76 Isomer 2, ethyl 2-(4-(2-(methylcarbamoyl)-isoindolin-1-yl)piperidin-1-yl)-6-azaspiro[3.4]octane-6-carboxylate] | – | – | 50.1 nM | – | 12.6 nM | – | – | – | 88% | 107% | 16% | < 4.7 | 14% | < 4.7
9 | CCOC(=O)N1CCC2(CC(N3CCC(n4cccc4)CC3)C2)C1 (single isomer, unassigned) [1-32 Isomer 2, ethyl 2-[4-(1H-pyrrol-1-yl)piperidin-1-yl]-6-azaspiro[3.4]octane-6-carboxylate] | 16% | > 20000 nM | 79.4 nM | 113% | 6.31 nM | 126% | > 20000 nM | 56% | – | – | – | – | – | –
10 | CCOC(=O)N1CCC2(CC(N3CCC(N4CCC(F)(F)CC4)CC3)C2)C1 (single isomer, unassigned) [4-14 Isomer 2, ethyl 2-(4,4-difluoro-1,4′-bipiperidin-1′-yl)-6-azaspiro[3.4]octane-6-carboxylate] | 0% | > 20000 nM | 200 nM | 28% | 20 nM | 48% | > 20000 nM | 55% | – | – | – | – | – | –
11 | CCOC(=O)N1CCC2(CC(N3CCC(N4CCC[C@@H]4CF)CC3)C2)C1 (single isomer, unassigned) [2-102 Isomer 2] | 11% | > 20000 nM | 5010 nM | 23% | 316 nM | 45% | > 20000 nM | 1% | – | – | – | – | – | –
12 | CCOC(=O)N1CCC2(CC(N3CCC([C@@H]4CCCN4C(=O)N(C)OC)CC3)C2)C1 (single isomer, unassigned) [2-34 Isomer 1] | – | > 20000 nM | 2000 nM | 74% | 25.1 nM | – | > 20000 nM | – | – | 89% | 16% | – | 8% | –
13 | CCOC(=O)N1CCC2(CC(N3CCC(N4C(=O)OC[C@@H]4C(C)C)CC3)C2)C1 (single isomer, unassigned) [2-123 Isomer 2] | 29% | > 20000 nM | 316 nM | 114% | 316 nM | 93% | > 20000 nM | 8% | – | – | – | – | – | –
14 | CCOC(=O)N1CCC2(CC(N3CCC(c4nccs4)CC3)C2)C1 (single isomer, unassigned) [1-25 Isomer 2, ethyl 2-[4-(1,3-thiazol-2-yl)piperidin-1-yl]-6-azaspiro[3.4]octane-6-carboxylate] | 13% | > 20000 nM | 50.1 nM | 110% | 3.98 nM | 128% | > 20000 nM | 15% | – | – | – | – | – | –
15 | CCOC(=O)N1CCC2(CC(N3CCC([C@@H]4CCCN4C(=O)NOC)CC3)C2)C1 (single isomer, unassigned) [2-33 Isomer 1] | 3% | > 20000 nM | 398 nM | – | 7.94 nM | – | > 20000 nM | 8% | 86% | 109% | – | – | – | –
16 | CCOC(=O)N1CCC2(CC(N3CCC(N4CCC[C@@H]4C(F)(F)F)CC3)C2)C1 (single isomer, unassigned) [2-104 Isomer 2] | 8% | > 20000 nM | 79.4 nM | 102% | 15.8 nM | 111% | > 20000 nM | 8% | – | – | – | – | – | –
17 | CCOC(=O)N1CCC2(CC(N3CCC(C4CCCN4C(=O)N(C)C)CC3)C2)C1 (single isomer, unassigned) [2-20 Isomer 2, ethyl 2-{4-[1-(dimethylcarbamoyl)pyrrolidin-2-yl]piperidin-1-yl}-6-azaspiro[3.4]octane-6-carboxylate] | 6% | > 20000 nM | > 20000 nM | 24% | 31.6 nM | 106% | > 20000 nM | 1% | – | – | – | – | – | –
